Results from patent US6147097A, “Imidazole derivatives as anti-HIV agents” (Shionogi & Co., Ltd., priority 1994, dated 2000).
Converted amounts (≈) assume the structure as drawn. Structures can show the parent of a compound that is named as a salt. Where two headings read alike, the source gives them in different places.

Key:
[1] = biological target: T1, purified recombinant HIV-1 reverse transcriptase (Human immunodeficiency virus type 1 group M subtype B, UniProt P04585); test: reverse transcriptase inhibition, poly(rA)/(dT) template primer, [3H]dTTP uptake; assay type: biochemical
T1 construct: purified recombinant HIV-1 reverse transcriptase; made in house; host or cells: Escherichia coli
Experimental: The reverse transcriptase activity of each of the compounds synthesized in Examples was assayed by the following procedures.
Using the purified recombinant HIV-1 reverse transcriptase RT, E.C. 2.7.7.49) obtained by expression in Escherichia Coli, a 96-well plate assay system was established for assaying a large number of samples. The RT inhibitory activity was determined as follows. To 11 μl of a solution of the test inhibitor in water or MSO was added 100 μl of a reaction mixture (0.1 unit/100 μl RT, 50 mM Tris-HCl pH 8.3, 150 mM KCl, 10 mM MgCl2, 3 mM dithiothreitol, 0.1% Nonidet P-40, 10 μg/ml. poly(rA) and 10 μg/ml (dT)12-1.8 as template and primer, and 4 μM dTTP, 1 μCi/100 μl [^3 H]dTTP as substrate) and the mixture was incubated at 37° C. for 1 hour and, then, immediately cooled on ice. Using a cell harvester, the reaction mixture was transferred to a DEAE-filter mat (LKB-Pharmacia). Then, using the wash line of the cell harvester, the cells were washed twice with 5% Na2 HPO4 /H2 O and once with water and dried at 95° C. for 15 minutes. […] The inhibitory activity was expressed in percent inhibition relative to the uptake on water or DMSO control.

[2] = cytotoxicity in MT-4 cells (MTT, culture medium in place of HIV); assay type: cell-based; conditions: human
Experimental: The anti-HIV activity of each of the compounds produced in Examples was assayed by the following procedures. (1) Human T cell line MOLT-4 clone 8 persistently infected by HIV (HTLV-IIIB strain) was cultured in an RPMI-1640 medium supplemented with 10% fetal calf serum, the culture supernatant was filtered, and the titer of virus was determined; the culture supernatant was stored at -80° C. On the other hand, the test compound was diluted with the above culture medium to predetermined concentrations and distributed in 50 μl aliquots into a 96-well microtiter plate. Then, d suspension of MT-4 cells was added in 100 μl aliquots (3.5×10^4 cells per well) and then the above HIV-containing supernatant diluted with the above culture medium was added, 50 μl (60 pfu (plaque forming units)) per well. (2) The plate was incubated in a CO2 incubator at 37° C. for 5 days. Then, 30 μl/well of 3-(4,5-dimethyl thiazol-2-yl)-2,5-diphenyltetrazolium bromide (MTT) (5 mg/ml PBS) was added and the incubation was further continued for 1 hour. The surviving cells reducing MTT yield precipitation of formazan. Therefore, 150 μl portions of the culture supernatant were removed from all wells and, instead, 150 μl of a solution (10% Triton X-100 and 0.4% (v/v) HCl-added isopropyl alcohol) was added. The plate was shaken on a plate mixer to dissolve the formazan. The OD of formazan was measured with a microreader at 560 nm arid 690 nm (reference wavelength) and the result was compared with that of control.
The cytotoxicity of each of the compounds produced in Examples was assayed. In place of the HIV-containing supernatant (the virus suspension) in (1) in Test Example 1, 50 μl of the culture medium was added to each well, and the cytotoxicity was determined in the same manner as that for (2) in Test Example 1.

[3] = MT-4 cells, no virus, 37° C., 5 days, MTT, Table 3, read-out: CC50

Compound: CC(C)c1c(Sc2cc(Cl)cc(Cl)c2)nc(COCCOC(N)=O)n1C [Compound I-65]
- IC50 [1]: > 239 µM
- CC50 at 120 h [2, 3]: 12.5 to 25 µg/mL (≈ 29.9 to 59.8 µM)

Compound: CC(=O)NCc1nc(C(C)C)c(Sc2cc(Cl)cc(Cl)c2)n1C [Compound I-83]
- IC50 [1]: 218 µM
- CC50 at 120 h [2, 3]: 6.3 to 12.5 µg/mL (≈ 16.9 to 33.6 µM)

Compound: CC(=O)Nc1ccc(Cn2c(CO)nc(C(C)C)c2Sc2cc(Cl)cc(Cl)c2)cc1 [Compound I-117, 1-(p-N-acetylaminobenzyl)-5-(3,5-dichlorophenylthio)-2-hydroxymethyl-4-isopropyl-1H-imidazole]
- IC50 [1]: 8.18 µM
- CC50 at 120 h ([2]; mt-4 cells): 50 µg/mL (≈ 108 µM)

Compound: CC(C)c1nc(CN)n(CF)c1Sc1cc(Cl)cc(Cl)c1 [Compound I-77, 2-aminomethyl-5-(3,5-dichlorophenylthio)-1-fluoromethyl-4-isopropylimidazole]
- IC50 [1]: 3.73 µM
- CC50 at 120 h [2, 3]: 10 µg/mL (≈ 28.7 µM)

Compound: CC(C)c1nc(COC(N)=O)n(C)c1[S+]([O-])c1cc(Cl)cc(Cl)c1 (centres unmarked) [Compound I-115, 2-carbamoyloxymethyl-5-(3,5-dichlorophenylsulfinyl)-4-isopropyl-1-methyl-1H-imidazole]
- CC50 at 120 h [2, 3]: 10 to 100 µg/mL (≈ 25.6 to 256 µM)

Compound: Cc1cc(C)cc(S(=O)(=O)c2c(C(C)C)nc(CO)n2C)c1 [Compound I-107, [5-(3,5-dimethylphenylsulfonyl)-4-isopropyl-1-methyl-1H-imidazol-2-yl]methanol]
- IC50 [1]: 194 µM
- CC50 at 120 h [2, 3]: > 100 µg/mL

Compound: CC(=O)OCCOCc1nc(Sc2cc(Cl)cc(Cl)c2)c(C(C)C)n1C [Compound I-64, 2-[4-(3,5-dichlorophenylthio)-5-isopropyl-1-methyl-1H-imidazol-2-yl]methoxy} ethyl acetate]
- IC50 [1]: > 240 µM
- CC50 at 120 h [2, 3]: 12.5 to 25 µg/mL

Compound: CC(C)c1nc(CO)n(Cc2cccc(N)c2)c1Sc1cc(Cl)cc(Cl)c1 [Compound I-118, 1-(m-aminobenzyl)-5-(3,5-dichlorophenylthio)-2-hydroxymethyl-4-isopropyl-1H-imidazole]
- IC50 [1]: 2.13 µM
- CC50 at 120 h ([2]; mt-4 cells): 12.5 to 25 µg/mL (≈ 29.6 to 59.2 µM)

Compound: CC(C)c1nc(COC(N)=O)n(Cc2ccc[nH]c2=O)c1Sc1cc(Cl)cc(Cl)c1 [Compound I-132, 2-carbamoyloxymethyl-5-(3,5-dichlorophenylthio)-1-(2-oxo-1,2-dihydro-pyridin-3-yl)methyl-4-isopropyl-1H-imidazole]
- IC50 [1]: 1.39 µM
- CC50 at 120 h ([2]; mt-4 cells): 12.5 to 25 µg/mL (≈ 26.7 to 53.5 µM)

Compound: Cc1ccc(S(=O)(=O)NCc2nc(C(C)C)c(Sc3cc(Cl)cc(Cl)c3)n2C)cc1 [Compound I-88, 5-(3,5-dichlorophenylthio)-4-isopropyl-1-methyl-2-p-toluenesulfonylaminomethyl-1H-imidazole]
- IC50 [1]: > 206 µM
- CC50 at 120 h [2, 3]: 1 to 10 µg/mL (≈ 2.06 to 20.6 µM)

Compound: [5-(3,5-dichlorophenylthio)-1-(1-fluoroethyl)-4-isopropyl-1H-imidazol-2-yl]methanol [Compound I-35]
- RT IC50 ([1]; pH 8.3, 37° C., 1 hour, Tables 5 and 6): 0.69 µg/mL

Compound: CC(C)c1nc(CCOC(N)=O)n(Cc2ccccc2N)c1Sc1cc(Cl)cc(Cl)c1 [Compound I-144, l-(o-aminobenzyl)-2-(2-carbamoyloxyethyl)-5-(3,5-dichlorophenylthio)-4-isopropyl-1H-imidazole]
- IC50 [1]: > 209 µM
- CC50 at 120 h ([2]; mt-4 cells): 6.3 to 12.5 µg/mL (≈ 13.1 to 26.1 µM)

Compound: CC(C)c1nc(CN)n(C)c1S(=O)(=O)c1cc(Cl)cc(Cl)c1 [Compound I-111, 2-aminomethyl-5-(3,5-dichlorophenylsulfonyl)-4-isopropyl-1-methyl-1H-imidazole]
- CC50 at 120 h [2, 3]: 1 to 10 µg/mL (≈ 2.76 to 27.6 µM)

Compound: CCCCCCCCCCCCn1c(CO)nc(C(C)C)c1Sc1cc(Cl)cc(Cl)c1 [Compound I-18, [5-(3,5-dichlorophenylthio)-1-dodecyl-4-isopropyl-1H-imidazol-2-yl]methanol]
- IC50 [1]: > 206 µM
- CC50 at 120 h [2, 3]: 10 to 100 µg/mL (≈ 20.6 to 206 µM)

Compound: CC(C)c1nc(CO)n(Cc2ccc(C(C)(C)C)cc2)c1Sc1cc(Cl)cc(Cl)c1 [Compound I-116, 1-(p-t-butylbenzyl)-5-(3,5-dichlorophenylthio)-2-hydroxymethyl-4-isopropyl-1H-imidazole hydrochloride]
- IC50 [1]: > 200 µM
- CC50 at 120 h ([2]; mt-4 cells): 25 µg/mL

Compound: CC(C)c1nc(COC(N)=O)n(Cc2ccccc2)c1Sc1cccc(Cl)c1 [Compound I-46, 1-benzyl-2-carbamoyloxymethyl-5-(3-chlorophenylthio)-4-isopropyl-1H-imidazole]
- IC50 [1]: 1.92 µM
- CC50 at 120 h [2, 3]: 12.5 to 25 µg/mL (≈ 30.1 to 60.1 µM)
